Experimental findings from paper PMC12114297 (Molecules, 2025) are described below.

The subject of experiment [1] is Staphylococcus aureus ATCC 25923. Nature of the experiment: Agar well diffusion, S. aureus. The note with it: for zone of inhibition at 1000 µg/mL: Staphylococcus aureus, ATCC25923, 60 µL of 1 mg/mL per well, ZOI including the well (6 mm), ± SD, n = 3, ciprofloxacin disk 5 μg, read-out: Staphylococcus aureus ATCC 25923 ZOI; for Antibacterial activity in words: agar well diffusion, particularly S. aureus. The format is cell-based. How it is done: (§1) The antimicrobial potential of the synthesized coumarin–triazole–isatin hybrids was evaluated by the agar well diffusion method. The activity was tested against a variety of Gram-positive bacteria (Staphylococcus aureus ATCC 25923 and ATCC 902710, Staphylococcus epidermidis ATCC 12228, Streptococcus pyogenes ATCC 19615, Enterococcus faecalis ATCC 51299), Gram-negative bacteria (Escherichia coli ATCC 25922, Haemophilus influenzae ATCC 49766, Pseudomonas aeruginosa ATCC 27853, Salmonella typhi ATCC 14028, Neisseria meningitidis ATCC 13090, Neisseria gonorrhoeae ATCC 43069), and fungi (Candida albicans ATCC 60193 and ATCC 90028, Candida orientalis ATCC 6258). All microbial strains were obtained from Microbiologics (St.Cloud, MN, USA).
(§2) The test compounds were dissolved in DMSO to obtain stock solutions (1 mg/mL). Each compound (60 µL) was transferred into wells (6 mm in diameter) that were previously perforated into agar plates inoculated with microbial suspensions standardized to 0.5 McFarland for bacteria and 2 McFarland for Candida spp. DMSO was used as a negative control, while commercial antibiotic disks of novobiocin (5 μg), ampicillin (10 μg), and ciprofloxacin (5 μg) served as positive controls. Antimicrobial activity was assessed by measuring the diameter of zones of inhibition (ZOIs) in millimeters. All tests were conducted in triplicate.
Background: In agar diffusion tests the substance spreads into inoculated agar from a disc or well.

Experiment [2] has as its target T1, BChE from equine serum (eqBuChE) (Equus caballus, UniProt P81908).
T1 construct: BChE from equine serum (BChE, EC 3.1.1.8); purchased Sigma-Aldrich (St. Louis, MO, USA); host or cells: equine serum
Nature of the experiment: biochemical. The settings on record: for IC50 / inhibition at 20 µM / BChE % of Inhibition (Conc. 20 μM): average ± standard error (n = 3); for Selectivity BChE/AChE: ratio of AChE and BChE IC50; for inhibition at 20 µM: read-out: BChE % of Inhibition (Conc. 20 μM), 20 μM. As for the experimental part:
The in vitro cholinesterase inhibitory activity of the synthesized hybrid molecules was evaluated using a modified Ellman’s assay, optimized for 96-well microplate application. AChE from Electrophorus electricus (AChE, EC 3.1.1.7), BChE from equine serum (BChE, EC 3.1.1.8), acetylthiocholine iodide (ATCh), butyrylthiocholine iodide (BTCh), and 5,5′-dithiobis(2-nitrobenzoic acid) were purchased from Sigma-Aldrich (St. Louis, MO, USA) and used without further purification.
Test compounds were initially dissolved in dimethylsulphoxide (DMSO) to yield 1 mM stock solutions and subsequently diluted with 0.1 M phosphate buffer (pH 8.0) to prepare working solutions.
For the assay, 20 µL of compound solution was added to 140 µL of 0.1 M phosphate buffer (pH 8.0) in each well, followed by 20 µL of enzyme solution (AChE or BuChE, 100 U/L). After incubation at room temperature for 10 min, the reaction was initiated by adding 10 µL of DTNB (0.01 M) and 10 µL of substrate (ATCh or BTCh, 0.015 M). […] The percentage inhibition of enzyme activity was calculated using the following equation:(1) % Inhibition=Absorbance of control−Apsorbance of sample/Absorbance of control×100 where the absorbance of the control represents the maximum enzyme activity (without inhibition), and the absorbance of the sample corresponds to the enzyme activity in the presence of the tested compound. Appropriate blanks were included to account for background absorbance and to correct for any intrinsic color of the tested compounds.
All experiments were performed in triplicate.

Experiment [3] has as its target T2, AChE from Electrophorus electricus (eeAChE) (Electrophorus electricus, UniProt O42275).
T2 construct: purchased Sigma-Aldrich (St. Louis, MO, USA)
Nature of the experiment: biochemical. The settings on record: for IC50: average ± standard error (n = 3); for inhibition at 20 µM: read-out: AChE % of Inhibition (Conc. 20 μM).

Experiment [4] deals with Staphylococcus epidermidis ATCC 12228. In words: Agar well diffusion, S. epidermidis. In kind it is cell-based. The settings on record: ATCC12228, read-out: Staphylococcus epidermidis ATCC 12228 ZOI, 60 µL of 1 mg/mL per well, ZOI including the well (6 mm), ± SD, n = 3, ciprofloxacin disk 5 μg. How it is done:
as §1, §2

T1 sequence (P81908 whole entry): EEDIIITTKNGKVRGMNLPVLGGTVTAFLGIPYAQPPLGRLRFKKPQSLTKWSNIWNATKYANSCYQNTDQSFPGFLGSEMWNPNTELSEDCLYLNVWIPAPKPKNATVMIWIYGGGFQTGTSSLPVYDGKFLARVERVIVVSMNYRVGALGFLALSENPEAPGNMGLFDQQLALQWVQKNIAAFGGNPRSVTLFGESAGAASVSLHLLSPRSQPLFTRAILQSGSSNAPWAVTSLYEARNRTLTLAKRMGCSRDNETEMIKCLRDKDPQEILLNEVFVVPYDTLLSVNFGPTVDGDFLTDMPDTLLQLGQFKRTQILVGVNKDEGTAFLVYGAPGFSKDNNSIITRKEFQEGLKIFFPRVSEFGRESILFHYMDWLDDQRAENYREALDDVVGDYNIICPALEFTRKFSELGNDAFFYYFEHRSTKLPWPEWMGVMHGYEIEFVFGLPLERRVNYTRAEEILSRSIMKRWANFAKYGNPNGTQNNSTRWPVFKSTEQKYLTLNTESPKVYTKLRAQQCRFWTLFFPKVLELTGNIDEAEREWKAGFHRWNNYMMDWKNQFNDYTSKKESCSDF
T2 sequence (O42275 24-633): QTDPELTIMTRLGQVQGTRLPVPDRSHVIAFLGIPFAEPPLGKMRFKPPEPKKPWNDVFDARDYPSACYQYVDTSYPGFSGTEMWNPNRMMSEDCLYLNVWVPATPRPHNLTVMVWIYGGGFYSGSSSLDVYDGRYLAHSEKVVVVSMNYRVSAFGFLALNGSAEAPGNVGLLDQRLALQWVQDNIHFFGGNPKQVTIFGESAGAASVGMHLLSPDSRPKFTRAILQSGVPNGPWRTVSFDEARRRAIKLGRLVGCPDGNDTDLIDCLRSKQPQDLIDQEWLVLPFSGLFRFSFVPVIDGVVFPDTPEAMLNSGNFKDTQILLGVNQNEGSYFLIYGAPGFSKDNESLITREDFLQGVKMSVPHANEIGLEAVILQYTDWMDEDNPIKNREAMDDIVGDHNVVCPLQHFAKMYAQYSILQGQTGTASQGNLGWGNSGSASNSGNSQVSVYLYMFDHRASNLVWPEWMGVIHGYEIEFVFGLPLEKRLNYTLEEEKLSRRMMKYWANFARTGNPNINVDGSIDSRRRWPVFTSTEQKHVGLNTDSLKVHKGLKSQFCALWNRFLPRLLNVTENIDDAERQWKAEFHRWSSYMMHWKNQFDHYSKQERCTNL

As for `O=C1C(=O)N(Cc2cn(CCCCOc3cc(=O)oc4ccccc34)nn2)c2ccc(F)cc21` [Compound 6c2, 5-fluoro-1-((1-(4-((2-oxo-2H-chromen-4-yl)oxy)butyl)-1H-1,2,3-triazol-4-yl)methyl)indoline-2,3-dione], in experiment [1], the zone of inhibition at 1000 µg/mL is 12 ± 2.65 mm and the “Antibacterial activity in words” value is given as “only weak antibacterial activity”. In experiment [2], the IC50 was found to be 5.51 ± 1.38 µM, the “Selectivity BChE/AChE” value is 3.11 and the inhibition at 20 µM was found to be 79.1 ± 5.49%. Further, in experiment [3], half-maximal inhibition (IC50) was put at 17.1 ± 1.65 µM and the inhibition at 20 µM amounted to 61 ± 3.49%. In experiment [4], the zone of inhibition at 1000 µg/mL was found to be 5.51 ± 1.38 mm.
Turning to `Cc1ccc2c(c1)C(=O)C(=O)N2Cc1cn(CCCCOc2cc(=O)oc3ccccc23)nn1` [Compound 6c7, 5-methyl-1-((1-(4-((2-oxo-2H-chromen-4-yl)oxy)butyl)-1H-1,2,3-triazol-4-yl)methyl)indoline-2,3-dione], the “Antibacterial activity in words” value in experiment [1] was “largely inactive”. Also, in experiment [2], the “BChE % of Inhibition (Conc. 20 μM)” value is on record as 10.32 ± 1.53% and the inhibition at 20 µM is under 11%. For the same compound, the inhibition at 20 µM in experiment [3] stood at 12.1 ± 1.26%.
For the compound `O=C1C(=O)N(Cc2cn(CCCOc3cc(=O)oc4ccccc34)nn2)c2ccc(F)cc21` [Compound 6b2, 5-fluoro-1-((1-(3-((2-oxo-2H-chromen-4-yl)oxy)propyl)-1H-1,2,3-triazol-4-yl)methyl)indoline-2,3-dione], the zone of inhibition at 1000 µg/mL is 9.33 ± 4.04 mm in experiment [1] and 5.9 ± 1.09 mm in experiment [4]. In experiment [1], the “Antibacterial activity in words” value is reported as “only modest antibacterial effect”. The compound further showed a half-inhibitory concentration (IC50) in experiment [2] of 5.9 ± 1.09 µM. The results for the inhibition at 20 µM in experiment [2] and in experiment [3] were 75.5 ± 5.69% and 44.3 ± 5.69%, respectively.
In the case of `O=C1C(=O)N(Cc2cn(CCCCOc3cc(=O)oc4ccccc34)nn2)c2ccc(Br)cc21` [Compound 6c4, 5-bromo-1-((1-(4-((2-oxo-2H-chromen-4-yl)oxy)butyl)-1H-1,2,3-triazol-4-yl)methyl)indoline-2,3-dione], in experiment [1], the zone of inhibition at 1000 µg/mL was 12 to 20 mm and the “Antibacterial activity in words” value was “only weak antibacterial activity”. Moreover, in experiment [2], the inhibition at 20 µM amounted to 27.1 ± 2.19%. Further, the inhibition at 20 µM in experiment [3] was determined as 9.84 ± 1.19%.
Take `O=C1C(=O)N(Cc2cn(CCCOc3cc(=O)oc4ccccc34)nn2)c2ccccc21` [Compound 6b1, 1-((1-(3-((2-oxo-2H-chromen-4-yl)oxy)propyl)-1H-1,2,3-triazol-4-yl)methyl)indoline-2,3-dione]: in experiment [2], inhibition was half-maximal at 8.52 ± 1.28 µM (IC50), the “Selectivity BChE/AChE” value stood at 2.13 and the inhibition at 20 µM came to 69.2 ± 5.27%. For the same compound, in experiment [3], the IC50 was 18.2 ± 1.19 µM and the inhibition at 20 µM was 69.2 ± 4.27%. For the same compound, the zone of inhibition at 1000 µg/mL in experiment [4] is 8.52 ± 1.28 mm.
Regarding `O=C1C(=O)N(Cc2cn(CCOc3cc(=O)oc4ccccc34)nn2)c2ccc(Cl)cc21` [Compound 6a3, 5-chloro-1-((1-(2-((2-oxo-2H-chromen-4-yl)oxy)ethyl)-1H-1,2,3-triazol-4-yl)methyl)indoline-2,3-dione], in experiment [2], the IC50 was 10.6 ± 1.13 µM and the inhibition at 20 µM came out at 62.6 ± 6.19%. Moreover, the inhibition at 20 µM in experiment [3] is 5.57 ± 1.19%. The zone of inhibition at 1000 µg/mL in experiment [4] stood at 10.6 ± 1.13 mm.
Regarding `O=C1C(=O)N(Cc2cn(CCCOc3cc(=O)oc4ccccc34)nn2)c2ccc(Cl)cc21` [Compound 6b3, 5-chloro-1-((1-(3-((2-oxo-2H-chromen-4-yl)oxy)propyl)-1H-1,2,3-triazol-4-yl)methyl)indoline-2,3-dione], in experiment [1], the zone of inhibition at 1000 µg/mL came to 10.3 ± 1.15 mm and the “Antibacterial activity in words” value is listed as “only modest antibacterial effect”. In addition, in experiment [2], the IC50 amounted to 11.3 ± 1.16 µM and the inhibition at 20 µM came out at 61.6 ± 7.24%. Moreover, the inhibition at 20 µM in experiment [3] was 31.5 ± 3.24%. The zone of inhibition at 1000 µg/mL in experiment [4] was determined as 11.2 ± 1.16 mm.
Turning to `COc1cc2c(cc1OC)C(=O)C(CC1CCN(Cc3ccccc3)CC1)C2` (stereo not shown) [Donepezil, donepezil, reference compound], the inhibition at 20 µM in experiment [2] was determined as 74.2 ± 6.17%.
Take `O=C1C(=O)N(Cc2cn(CCCCOc3cc(=O)oc4ccccc34)nn2)c2ccc([N+](=O)[O-])cc21` [Compound 6c6, 5-nitro-1-((1-(4-((2-oxo-2H-chromen-4-yl)oxy)butyl)-1H-1,2,3-triazol-4-yl)methyl)indoline-2,3-dione]: in experiment [1], the “Antibacterial activity in words” value was “largely inactive”. In addition, in experiment [2], the “BChE % of Inhibition (Conc. 20 μM)” value is given as 4.15 ± 0.54% and the inhibition at 20 µM was under 6%. The inhibition at 20 µM in experiment [3] was found to be 19 ± 1.96%.
Take `Cc1ccc2c(c1)C(=O)C(=O)N2Cc1cn(CCOc2cc(=O)oc3ccccc23)nn1` [Compound 6a7, 5-methyl-1-((1-(2-((2-oxo-2H-chromen-4-yl)oxy)ethyl)-1H-1,2,3-triazol-4-yl)methyl)indoline-2,3-dione]: the “Antibacterial activity in words” value in experiment [1] was “largely inactive”. In experiment [2], the “BChE % of Inhibition (Conc. 20 μM)” value was 2.91 ± 0.15%. Besides, the inhibition at 20 µM in experiment [3] came to 22.8 ± 3.66%.
Regarding `Cc1ccc2c(c1)C(=O)C(=O)N2Cc1cn(CCCOc2cc(=O)oc3ccccc23)nn1` [Compound 6b7, 5-methyl-1-((1-(3-((2-oxo-2H-chromen-4-yl)oxy)propyl)-1H-1,2,3-triazol-4-yl)methyl)indoline-2,3-dione], the “Antibacterial activity in words” value in experiment [1] is “largely inactive”. Besides, in experiment [2], the “BChE % of Inhibition (Conc. 20 μM)” value is 4.88 ± 0.27%. In experiment [3], the inhibition at 20 µM came out at 24.4 ± 1.27%.
On to `O=C1C(=O)N(Cc2cn(CCCCOc3cc(=O)oc4ccccc34)nn2)c2ccc(Cl)cc21` [Compound 6c3, 5-chloro-1-((1-(4-((2-oxo-2H-chromen-4-yl)oxy)butyl)-1H-1,2,3-triazol-4-yl)methyl)indoline-2,3-dione], for which, in experiment [1], the zone of inhibition at 1000 µg/mL was 10.7 ± 3.06 mm and the “Antibacterial activity in words” value was “only weak antibacterial activity”. For the same compound, the inhibition at 20 µM in experiment [2] is 5.19 ± 1.14%. For the same compound, the inhibition at 20 µM in experiment [3] was determined as 44.2 ± 3.14%.
In the case of `O=C1C(=O)N(Cc2cn(CCCCOc3cc(=O)oc4ccccc34)nn2)c2ccc(I)cc21` [Compound 6c5, 5-iodo-1-((1-(4-((2-oxo-2H-chromen-4-yl)oxy)butyl)-1H-1,2,3-triazol-4-yl)methyl)indoline-2,3-dione], the “Antibacterial activity in words” value in experiment [1] was “largely inactive”. Also, the inhibition at 20 µM was found to be 22.9 ± 1.64% in experiment [2] and 11.2 ± 1.64% in experiment [3].
For the compound `O=C1C(=O)N(Cc2cn(CCOc3cc(=O)oc4ccccc34)nn2)c2ccc([N+](=O)[O-])cc21` [Compound 6a6, 5-nitro-1-((1-(2-((2-oxo-2H-chromen-4-yl)oxy)ethyl)-1H-1,2,3-triazol-4-yl)methyl)indoline-2,3-dione], the “Antibacterial activity in words” value in experiment [1] was “largely inactive”. In addition, in experiment [2], the “BChE % of Inhibition (Conc. 20 μM)” value stood at 4.89 ± 0.74% and the inhibition at 20 µM is under 6%. The inhibition at 20 µM in experiment [3] came out at 3.11 ± 0.44%.
Consider `O=C1C(=O)N(Cc2cn(CCCOc3cc(=O)oc4ccccc34)nn2)c2ccc([N+](=O)[O-])cc21` [Compound 6b6, 5-nitro-1-((1-(3-((2-oxo-2H-chromen-4-yl)oxy)propyl)-1H-1,2,3-triazol-4-yl)methyl)indoline-2,3-dione], for which the “Antibacterial activity in words” value in experiment [1] was “largely inactive”. Also, in experiment [2], the “BChE % of Inhibition (Conc. 20 μM)” value is 5.89 ± 1.91% and the inhibition at 20 µM is under 6%. The inhibition at 20 µM in experiment [3] was found to be 17.9 ± 1.91%.
`O=C1C(=O)N(Cc2cn(CCOc3cc(=O)oc4ccccc34)nn2)c2ccc(I)cc21` [Compound 6a5, 5-iodo-1-((1-(2-((2-oxo-2H-chromen-4-yl)oxy)ethyl)-1H-1,2,3-triazol-4-yl)methyl)indoline-2,3-dione]: the “Antibacterial activity in words” value in experiment [1] was “largely inactive”. For the same compound, the inhibition at 20 µM in experiment [2] is 40.9 ± 6.26%; in experiment [3] it was 3.17 ± 0.26%.

By IC50 is commonly meant the concentration that gives 50% inhibition. What is called inhibition is the share of the control response that was lost under treatment.
